Results: US5292742A, “Angiotensin II receptor blocking 2,3,6 substituted quinazolinones” (American Cyanamid Company, priority 1993, dated 1994)
Values joined by “and” are separate entries in the source; they are usually repeats but may differ in a detail not shown here. Identical values can stand only once.

Tested on: angiotensin II (AII) vasopressor response
Experiment: AII challenge: inhibition of angiotensin II vasopressor response in conscious spontaneously hypertensive rats
Format: in vivo, rat (Okamoto-Aoki SHR)
Conditions: 3 mg/kg IV; for % Inhibition (angiotensin blockage) of AII vasopressor response / Average Change (increase in systolic blood pressure after AII): SHR n = 2; for Change (increase in systolic blood pressure after AII), individual rat / Response After AII (systolic blood pressure), individual rat / Control Before AII (systolic blood pressure), individual rat: individual SHR
Source text: By administering a compound of this invention to a rat, and then challenging with angiotensin II, a blockage of the vasopressor response is realized.
Conscious Male Okamoto-Aoki SHR, 16-20 weeks old, weighing approximately 330 g are purchased from Charles River Labs (Wilmington, Mass.). Conscious rats are restrained in a supine position with elastic tape. The area at the base of the tail is locally anesthetized by subcutaneous infiltration with 2% procaine. The ventral caudal artery and vein are isolated, and a cannula made of polyethylene (PE) 10-20 tubing (fused together by heat) is passed into the lower abdominal aorta and vena cava, respectively. The cannula is secured, heparinized (1,000 I.U./ml), sealed and the wound is closed. The animals are placed in plastio restraininq cages in an upright position. The cannula is attached to a Statham P23Db pressure transducer, and pulsatile blood pressure is recorded to 10-15 minutes with a Gould Brush recorder. (Chan et al., (Drug Development Res., 18:75-94, 1989).
Angiotensin II (human sequence, Sigma Chem. Co., St. Louis, Mo.) of 0.05 and 0.1 mcg/kg i.v. is injected into all rats (predosing response). Then a test compound, vehicle or a known angiotensin II antagonist is administered i.v., i.p. or orally to each set of rats. The two doses of angiotensin II are given to each rat again at 30, 60, 90, 120, 180, 240 and 300 minutes post dosing the compound or vehicle. The vasopressor response of angiotensin II is measured for the increase in systolic blood pressure in mmHg. The percentage of antagonism or blockade of the vasopressor response of angiotensin II by a compound is calculated using the vasopressor response (increase in systolic blood pressure) of angiotensin II of each rat predosing the compound as 100%. A compound is considered active if at 30 mg/kg i.v. it antagonized at least 50% of the response.

[1] = AII 0.05 mcg/kg IV, 30 min post dose
[2] = AII 0.05 mcg/kg IV, 60 min post dose
[3] = AII 0.05 mcg/kg IV, 90 min post dose
[4] = AII 0.05 mcg/kg IV, 120 min post dose
[5] = AII 0.05 mcg/kg IV, 180 min post dose
[6] = AII 0.05 mcg/kg IV, 240 min post dose
[7] = AII 0.05 mcg/kg IV, 300 min post dose
[8] = AII 0.1 mcg/kg IV, 30 min post dose
[9] = AII 0.1 mcg/kg IV, 60 min post dose
[10] = AII 0.1 mcg/kg IV, 90 min post dose
[11] = AII 0.1 mcg/kg IV, 120 min post dose
[12] = AII 0.1 mcg/kg IV, 180 min post dose
[13] = AII 0.1 mcg/kg IV, 240 min post dose
[14] = AII 0.1 mcg/kg IV, 300 min post dose

CCCCc1nc2ccc(C3=NN4CCCC4C3)cc2c(=O)n1Cc1ccc(-c2ccccc2-c2nnn[nH]2)cc1 (stereo not shown) [Example 10, 2-Butyl-6-(3a,4,5,6-tetrahydro-3H-pyrrolo[1,2-b]-pyrazol-2-yl)-3-[[2'-(1H-tetrazol-5-yl)[1,1'-biphenyl]-4-yl]methyl]-4(3H)-quinazolinone] was tested, and the “% Inhibition (angiotensin blockage) of AII vasopressor response” value (from here on “% Inhibition (angiotensin blockage)”) [1] was 61%, the “Average Change (increase in systolic blood pressure after AII)” value [1] was 13.5 mmHg and the “Change (increase in systolic blood pressure after AII), individual rat” value [1] was 12 mmHg and 15 mmHg. For the same compound, the “% Inhibition (angiotensin blockage)” value [2] was 7%, the “Average Change (increase in systolic blood pressure after AII)” value [2] was 32.5 mmHg and the “Change (increase in systolic blood pressure after AII), individual rat” value [2] was 30 mmHg and 35 mmHg. The “% Inhibition (angiotensin blockage)” value [3] was 43%, the “Average Change (increase in systolic blood pressure after AII)” value [3] was 20 mmHg and the “Change (increase in systolic blood pressure after AII), individual rat” value [3] was 30 mmHg and 10 mmHg. For the same compound, the “% Inhibition (angiotensin blockage)” value [4] was 43%, the “Average Change (increase in systolic blood pressure after AII)” value [4] was 20 mmHg and the “Change (increase in systolic blood pressure after AII), individual rat” value [4] was 25 mmHg and 15 mmHg. The “% Inhibition (angiotensin blockage)” value [5] was 36%, the “Average Change (increase in systolic blood pressure after AII)” value [5] was 22.5 mmHg and the “Change (increase in systolic blood pressure after AII), individual rat” value [5] was 25 mmHg and 20 mmHg. The “% Inhibition (angiotensin blockage)” value [6] was 50%, the “Average Change (increase in systolic blood pressure after AII)” value [6] was 17.5 mmHg and the “Change (increase in systolic blood pressure after AII), individual rat” value [6] was 20 mmHg and 15 mmHg. For the same compound, the “% Inhibition (angiotensin blockage)” value [7] was 7%, the “Average Change (increase in systolic blood pressure after AII)” value [7] was 32.5 mmHg and the “Change (increase in systolic blood pressure after AII), individual rat” value [7] was 35 mmHg and 30 mmHg. The “% Inhibition (angiotensin blockage)” value [8] was 55%, the “Average Change (increase in systolic blood pressure after AII)” value [8] was 22.5 mmHg and the “Change (increase in systolic blood pressure after AII), individual rat” value [8] was 20 mmHg and 25 mmHg. The “% Inhibition (angiotensin blockage)” value [9] was 55%, the “Average Change (increase in systolic blood pressure after AII)” value [9] was 22.5 mmHg and the “Change (increase in systolic blood pressure after AII), individual rat” value [9] was 25 mmHg and 20 mmHg. For the same compound, the “% Inhibition (angiotensin blockage)” value [10] was 50%, the “Average Change (increase in systolic blood pressure after AII)” value [10] was 25 mmHg and the “Change (increase in systolic blood pressure after AII), individual rat” value [10] was 25 mmHg. For the same compound, the “% Inhibition (angiotensin blockage)” value [11] was 50%, the “Average Change (increase in systolic blood pressure after AII)” value [11] was 25 mmHg and the “Change (increase in systolic blood pressure after AII), individual rat” value [11] was 30 mmHg and 20 mmHg. The “% Inhibition (angiotensin blockage)” value [12] was 45%, the “Average Change (increase in systolic blood pressure after AII)” value [12] was 27.5 mmHg and the “Change (increase in systolic blood pressure after AII), individual rat” value [12] was 30 mmHg and 25 mmHg. For the same compound, the “% Inhibition (angiotensin blockage)” value [13] was 50%, the “Average Change (increase in systolic blood pressure after AII)” value [13] was 25 mmHg and the “Change (increase in systolic blood pressure after AII), individual rat” value [13] was 25 mmHg. The “% Inhibition (angiotensin blockage)” value [14] was 30%, the “Average Change (increase in systolic blood pressure after AII)” value [14] was 35 mmHg and the “Change (increase in systolic blood pressure after AII), individual rat” value [14] was 45 mmHg and 25 mmHg. The “Response After AII (systolic blood pressure), individual rat” value (“Response After AII” for short) (after AII 0.05 mcg/kg IV, 30 min post dose) was 242 mmHg and 255 mmHg, the “Response After AII” value (after AII 0.05 mcg/kg IV, 60 min post dose) was 255 mmHg and 270 mmHg and the “Response After AII” value (after AII 0.05 mcg/kg IV, 90 min post dose) was 255 mmHg and 250 mmHg. The “Response After AII” value (after AII 0.05 mcg/kg IV, 120 min post dose) was 250 mmHg and 230 mmHg, the “Response After AII” value (after AII 0.05 mcg/kg IV, 180 min post dose) was 235 mmHg and the “Response After AII” value (after AII 0.05 mcg/kg IV, 240 min post dose) was 230 mmHg and 235 mmHg. For the same compound, the “Response After AII” value (after AII 0.05 mcg/kg IV, 300 min post dose) was 250 mmHg and 245 mmHg, the “Response After AII” value (after AII 0.1 mcg/kg IV, 30 min post dose) was 250 mmHg and 260 mmHg and the “Response After AII” value (after AII 0.1 mcg/kg IV, 60 min post dose) was 255 mmHg and 260 mmHg. For the same compound, the “Response After AII” value (after AII 0.1 mcg/kg IV, 90 min post dose) was 265 mmHg and 260 mmHg, the “Response After AII” value (after AII 0.1 mcg/kg IV, 120 min post dose) was 265 mmHg and 240 mmHg and the “Response After AII” value (after AII 0.1 mcg/kg IV, 180 min post dose) was 245 mmHg and 250 mmHg. For the same compound, the “Response After AII” value (after AII 0.1 mcg/kg IV, 240 min post dose) was 250 mmHg and 240 mmHg, the “Response After AII” value (after AII 0.1 mcg/kg IV, 300 min post dose) was 255 mmHg and 250 mmHg and the “Control Before AII (systolic blood pressure), individual rat” value (from here on “Control Before AII”) (before AII 0.05 mcg/kg IV, 30 min post dose) was 230 mmHg and 240 mmHg. The “Control Before AII” value (before AII 0.05 mcg/kg IV, 60 min post dose) was 225 mmHg and 235 mmHg, the “Control Before AII” value (before AII 0.05 mcg/kg IV, 90 min post dose) was 225 mmHg and 240 mmHg and the “Control Before AII” value (before AII 0.05 mcg/kg IV, 120 min post dose) was 225 mmHg and 215 mmHg. The “Control Before AII” value (before AII 0.05 mcg/kg IV, 180 min post dose) was 210 mmHg and 215 mmHg, the “Control Before AII” value (before AII 0.05 mcg/kg IV, 240 min post dose) was 210 mmHg and 220 mmHg and the “Control Before AII” value (before AII 0.05 mcg/kg IV, 300 min post dose) was 215 mmHg. For the same compound, the “Control Before AII” value (before AII 0.1 mcg/kg IV, 30 min post dose) was 230 mmHg and 235 mmHg, the “Control Before AII” value (before AII 0.1 mcg/kg IV, 60 min post dose) was 230 mmHg and 240 mmHg and the “Control Before AII” value (before AII 0.1 mcg/kg IV, 90 min post dose) was 240 mmHg and 235 mmHg. The “Control Before AII” value (before AII 0.1 mcg/kg IV, 120 min post dose) was 235 mmHg and 220 mmHg, the “Control Before AII” value (before AII 0.1 mcg/kg IV, 180 min post dose) was 215 mmHg and 225 mmHg and the “Control Before AII” value (before AII 0.1 mcg/kg IV, 240 min post dose) was 225 mmHg and 215 mmHg. For the same compound, the “Control Before AII” value (before AII 0.1 mcg/kg IV, 300 min post dose) was 210 mmHg and 225 mmHg.
